In one assay the target is T1, P2X1 Cys2(1-3) chimera (Homo sapiens, UniProt P51575, A118P/DEL120-123/E128S/G124S/G131D/INS125RVHNAT/K127L/S130A).
T1 sequence (P51575 with tags, fused parts or gaps A118P/DEL120-123/G124S/INS125RVHNAT/K127L/E128S/S130A/G131D): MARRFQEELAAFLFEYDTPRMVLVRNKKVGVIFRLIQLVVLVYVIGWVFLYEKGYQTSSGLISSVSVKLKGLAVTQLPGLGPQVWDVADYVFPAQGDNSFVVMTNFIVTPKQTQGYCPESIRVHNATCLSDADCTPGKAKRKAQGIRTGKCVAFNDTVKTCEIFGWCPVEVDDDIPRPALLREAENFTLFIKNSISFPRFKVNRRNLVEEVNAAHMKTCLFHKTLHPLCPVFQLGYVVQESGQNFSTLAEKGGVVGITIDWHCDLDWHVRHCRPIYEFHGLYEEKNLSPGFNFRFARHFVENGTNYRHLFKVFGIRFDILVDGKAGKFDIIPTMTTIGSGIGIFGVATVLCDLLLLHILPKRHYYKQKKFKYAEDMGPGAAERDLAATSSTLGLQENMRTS
Kind of assay: Two-electrode voltage clamp, chimera P2X1 Cys2. It is filed as cell-based. On the technique in general: Two-electrode voltage clamp holds a large cell at a set potential and records current.

For the next assay, the target named is T2, P2X1 Cys2(3-4) chimera (Homo sapiens, UniProt P51575, A137L/A141G/I144L/K136E/K138D/K140L/K148R/P134A/Q142N/R139M/T133V).
T2 sequence (P51575 1-399 T133V/P134A/K136E/A137L/K138D/R139M/K140L/A141G/Q142N/I144L/K148R): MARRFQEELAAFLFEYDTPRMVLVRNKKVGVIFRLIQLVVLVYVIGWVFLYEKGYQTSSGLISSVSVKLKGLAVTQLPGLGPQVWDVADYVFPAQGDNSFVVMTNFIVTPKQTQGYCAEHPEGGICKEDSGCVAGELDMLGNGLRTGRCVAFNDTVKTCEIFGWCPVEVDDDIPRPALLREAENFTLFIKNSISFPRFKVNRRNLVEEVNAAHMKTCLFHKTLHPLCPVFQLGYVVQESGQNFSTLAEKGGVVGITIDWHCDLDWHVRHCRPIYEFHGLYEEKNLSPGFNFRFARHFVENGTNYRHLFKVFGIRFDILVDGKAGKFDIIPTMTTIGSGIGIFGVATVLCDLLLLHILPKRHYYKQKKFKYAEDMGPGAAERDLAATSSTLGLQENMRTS
Kind of assay: Two-electrode voltage clamp, chimera P2X1 Cys2. It is filed as cell-based.

In assay [1] the target is T3, P2X1 receptor mutant K140L (Homo sapiens, UniProt P51575, K140L).
T3 sequence (P51575 1-399 K140L): T2 sequence (P51575 1-399 T133V/P134A/K136E/A137L/K138D/R139M/K140L/A141G/Q142N/I144L/K148R) with V133T, A134P, E136K, L137A, D138K, M139R, G141A, N142Q, L144I, R148K
Kind of assay: Two-electrode voltage clamp, P2X1 mutant K140L. It is filed as cell-based.

Assay [2] concerns the target T4, P2X1 receptor mutant KAKRK → ELDML(5) (Homo sapiens, UniProt P51575, A137L/K136E/K138D/K140L/R139M).
T4 sequence (P51575 1-399 K136E/A137L/K138D/R139M/K140L): T2 sequence (P51575 1-399 T133V/P134A/K136E/A137L/K138D/R139M/K140L/A141G/Q142N/I144L/K148R) with V133T, A134P, G141A, N142Q, L144I, R148K
Kind of assay: Two-electrode voltage clamp, P2X1 mutant X1-ELDML. It is filed as cell-based.

Another assay deals with P2X7 receptor. The settings on record: ref Fonfria et al., 2008; cited from earlier work.
In assay [3] the target is T5, P2X2 receptor mutant X2-KLKML(2) (E134KD136K) (Homo sapiens, UniProt Q9UBL9, D148K/E146K).
T5 sequence (Q9UBL9 1-471 E146K/D148K): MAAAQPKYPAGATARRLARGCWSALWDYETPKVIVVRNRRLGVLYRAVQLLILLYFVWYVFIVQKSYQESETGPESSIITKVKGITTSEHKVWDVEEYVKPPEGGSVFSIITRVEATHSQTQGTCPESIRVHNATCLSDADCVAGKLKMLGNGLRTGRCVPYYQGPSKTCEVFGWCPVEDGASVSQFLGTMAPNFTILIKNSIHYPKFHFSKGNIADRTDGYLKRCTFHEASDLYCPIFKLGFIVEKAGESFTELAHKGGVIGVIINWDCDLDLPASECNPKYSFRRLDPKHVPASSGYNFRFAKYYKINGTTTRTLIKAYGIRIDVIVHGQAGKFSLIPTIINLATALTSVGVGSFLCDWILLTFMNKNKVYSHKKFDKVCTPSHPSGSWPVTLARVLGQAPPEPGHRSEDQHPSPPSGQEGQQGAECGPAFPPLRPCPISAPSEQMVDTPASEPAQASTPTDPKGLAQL
Kind of assay: Two-electrode voltage clamp, P2X2 mutant X2-KLKML. It is filed as cell-based. The settings on record: double mutation E134KD136K.

Changes are numbered by the printed parent chain.

Regarding `O=C(Nc1cc(C(=O)Nc2ccc(S(=O)(=O)O)cc2S(=O)(=O)O)cc(C(=O)Nc2ccc(S(=O)(=O)O)cc2S(=O)(=O)O)c1)Nc1cc(C(=O)Nc2ccc(S(=O)(=O)O)cc2S(=O)(=O)O)cc(C(=O)Nc2ccc(S(=O)(=O)O)cc2S(=O)(=O)O)c1` [NF449, 4,4′,4′′,4′′′-(carbonylbis(imino-5,1,3-benzenetriyl-bis(carbonylimino)))tetrakis-benzene-1,3-disulphonic acid], the “Reduction in NF449 sensitivity compared with P2X1 WT” value at P2X1 Cys2(1-3) chimera was ~20 fold. For the same molecule, on P2X1 Cys2(3-4) chimera, the “Decrease in NF449 sensitivity compared with P2X1 WT” value is listed as ~1700 fold. Also, the “Reduction of ATP-evoked current” value in assay [1] (1 nM antagonist, EC90 ATP (10 µM)) is on record as 40–70%. For the same molecule, the “Reduction in NF449 sensitivity compared with WT P2X1” value in assay [2] is reported as ~700 fold.

With `Cc1ccc(C(=O)Nc2ccc(S(=O)(=O)O)c3cc(S(=O)(=O)O)cc(S(=O)(=O)O)c23)cc1NC(=O)c1cccc(NC(=O)Nc2cccc(C(=O)Nc3cc(C(=O)Nc4ccc(S(=O)(=O)O)c5cc(S(=O)(=O)O)cc(S(=O)(=O)O)c45)ccc3C)c2)c1` [suramin], the “Increase in suramin sensitivity compared with WT P2X1” value on P2X1 Cys2(1-3) chimera was 15 fold. The “Effect of mutation on suramin sensitivity” value in assay [1] is on record as “no effect”. For the same molecule, in the assay on P2X7 receptor, the “Effectiveness at guinea pig compared with rat and human P2X7 isoforms” value was ~10 fold. Besides, the “Increase in suramin sensitivity compared with WT P2X2” value in assay [3] is 10 fold.

The record behind these values is paper PMC3268193 (British Journal of Pharmacology, 2012).
